These results are taken from US20260355199A1, “COMPOSITIONS AND METHODS FOR TREATING OR PREVENTING NONALCOHOLIC STEATOHEPATITIS (NASH), ANOREXIA, DEPRESSION, ENDOMETRIOSIS, AND OTHER DISEASES OR DISORDERS” (priority 2022, published 2026).

“Also recorded” adds a separate entry of the source.

Experiment [1] deals with activity-based anorexia (ABA) mice. Description: Activity-based anorexia (ABA) model. It counts as in vivo, mouse. The text has this: The importance of AgRP neurons in psychiatric conditions such as anorexia was further underscored by a recent report showing that chemogenetic activation of AgRP neurons in mice during ABA attenuated bodyweight loss with reduction in excessive physical activity (Hickey et al., 2022, Mol Psychiatry). […] Thus, peripubertal female mice were exposed to the ABA paradigm as previously described (Miletta, M. C. et al., 2020, Nature Metabolism, 2:1204-1211). Mice were singly housed at postnatal day 36 (P36) with ad libitum access to food, water, and a running wheel. After 4 days of acclimation at P40, mice were food restricted with free access to food for only 2 h daily for 3 days. At P40 and before the onset of food restriction, mice received first intraperitoneal (i.p.) injection of Bobcat339 or vehicle, with second and third injections performed at P47 and P54, respectively (FIG. 17A).
Bobcat339 powder (Sigma-Aldrich, SML2611) was freshly dissolved in DMSO (vehicle) at a concentration of 50 mg/mL and filtered through a 0.22 micron. It was further diluted with 1×PBS to a final concentration of 0.5 mg/mL before injections. Mice were injected intraperitoneally with Bobcat339 at 1 mg/kg, 2.5 mg/kg, or 4 mg/kg.
On P36, animals were single housed with free access to food and water and 24 h access to a running wheel. After 4 days of acclimation, on P40, all food was removed from the cage and returned only for 2 h daily (free food access from 19:00 to 21:00) and 24 h access to a running wheel for 3 days. On P43, 24 h ad libitum access to food was returned and the running wheel access was blocked to allow the animals to recover. The animals were allowed to recover for at least 1 week before undergoing behavioral testing. Continuous multiday analysis of running wheel activity was recorded using VitalView Data Acquisition System software version 5.1 (Starr Life Science). Food intake was measured after measurement of the food pellets before and after the 2 h food restriction. Body weight was monitored in the morning. Body composition was assessed using EchoMRI analysis.

The test system of experiment [2] is Caspase-1. The experiment is described as follows: Caspase-1 assay in human MDMs. It counts as cell-based. To be noted: 10 μM, 48 h. As for the experimental part: For TET3 expression restoration experiments, cells seeded in 24-well plates were infected with Ad-GFP or Ad-TET3 at 4000 gc/cell. Following 16 h of infection, vehicle or Bobcat339 were added at a final concentration of 10 μM. Protein and RNA were isolated 48 hours later and analyzed.
These were carried out using the Apoptosis/Caspase-1 assay kit (MyBioSource, MBS258046). Briefly, after wash with PBS, cells were incubated with 1×FAM-FLCA working solution in 300 μL growth media at 37 °C for 1 hour, followed by wash with 1× Cellular Wash Buffer three times. Hoechst 33342 was applied to counter-stain the cells for 15 min. Cells were then covered with mounting media and coverslips and scoped using a Keyence BZ-X700 fluorescence microscope.

In experiment [3] the test system is Cas9+ mice. The experiment is described as follows: Post-fast refeeding study with leptin. The format is in vivo, mouse. To be noted: leptin 5 mg/kg i.p. As for the experimental part: To assess leptin effects on suppression of hunger-induced appetite, female Cas9+ mice injected with AAV or AAV-sgTet3 bilaterally into the ARC were fasted overnight for 22 h. On the second day, mouse leptin (L3772-1MG, Sigma Aldrich) was administrated at 5 mg/kg intraperitoneally at 10:00 and pre-weighed food was placed in the cage and monitored for the following 24 h. For ChIP studies, Cas9+ mice injected with AAV or AAVsgTet3 bilaterally into the ARC were fasted overnight for 22 h. On the second day, saline or leptin (5 mg/kg) was administrated intraperitoneally at 10:00. Two hours later, ARCs were isolated for ChIP-qPCR analysis. To examine leptin-induced protein-protein interactions, Cas9+ mice were fasted overnight for 22 h. On the second day, leptin was administrated at 5 mg/kg intraperitoneally at 10:00, and ARCs were isolated 2 h later, followed by co-IP studies.

On to `Nc1nc(=O)n(-c2cccc(-c3ccccc3)c2)cc1Cl` [Bobcat339, 4-Amino-1-[1,1′-biphenyl]-3-yl-5-chloro-2(1H)-pyrimidinone], for which, in experiment [1] (ABA), the “lethality in the ABA model” value is “diminished lethality”. Further, the “body weight, daily food intake, and running wheel account” value in experiment [1] (ABA, acclimation) is given as “no differences”. Besides, in experiment [1] (ABA, food restriction), the body weight entry is “able to maintain their body weight throughout the experiment”, the food intake entry is “increased feeding; also recorded: a significant increase in food intake” and the wheel running result was “decreased compulsive running; also recorded: decline in compulsive wheel running”. The body composition result in experiment [1] (end of the recovery period) is given as “No differences in body composition”. Further, the “onset of appetite-stimulating and anti-stress effects” value in experiment [1] (i.p.) is given as at most 24 h. In experiment [1] (single i.p. injection), the “duration of appetite-stimulating and anti-stress effects” value is “lasted for at least one week”. The “therapeutic effect in a mouse model of anorexia” value in experiment [1] (summary) is “elicited therapeutic effects in a mouse model of anorexia”. Also, the “apoptosis (Caspase-1)” value in experiment [2] was “increased apoptosis; also recorded: a significant increase in pyroptotic cell death”.

As to “leptin: adipose hormone; mouse leptin L3772-1MG or human leptin L4146-1MG, Sigma Aldrich”, the values for the hunger-induced appetite entry in experiment [3] (AAV control mice) and in experiment [3] (TET3 knockdown (AAV-sgTet3) mice) were “suppressed hunger-induced appetite in control mice” and “failed to do so in TET3 knockdown animals”, respectively.
